# “Also recorded” adds a separate entry of the source.
# Key:
# [1] = On target toxicity compared with EGFR inhibitors
# xCT = test: Loss of EGFR-chaperoned transporter xCT from cells; format: cell-based; conditions: along with EGFR
# From the text: (§1) It was reasoned that the activity seen in these susceptible tumor lines was largely due to EGFR KIFs. Tumors cells are always metabolically stressed, and in actual tumors poor circulation makes the stress even more severe on the tumor interior, which is usually hypoxic once the tumor has growth to more than 100 mm^3. […] As tumor cells try to run in […] glycolysis, they have a much larger glucose requirement than normal cells, and any hindrance of glucose import would be expected to stress cells, pushing them away from aerobic glycolysis, and towards oxidative phosphorylation to produce ATP, which in turn would almost certainly increase production of reactive oxygen intermediates (ROI) in these already abnormally metabolizing cells. The most common ways of disposing of ROI are via conjugation with glutathione, or reaction with various reducing enzymes, most of which rely on cysteine thiols for their RedOx ability. Both of these mechanisms require stressed cells to be able to import large amounts of cysteine, much of which is produced by the liver and put into circulation, as the high demand totally overwhelms endogenous cysteine biosynthesis (which requires methionine as its source of sulfur). […]
# [2] = system: tumors driven by mt-KRAS or mt-BRAF; test: NC160 Tumor Cell panel; format: cell-based; conditions: several tumors driven by mt-KRAS or mt-BRAF
# [3] = system: cells driven by mt-KRAS, mt-BRAF, and mt-EGFR; test: Oxidative stress in cells, hydrogen peroxide levels as marker; format: cell-based; conditions: six hours post treatment
# From the text: Signs of oxidative stress in cells were investigated after addition of increasing amounts of Compound A with hydrogen peroxide levels being chosen as a marker of increased oxidative stress. […] Consideration was given to ways of exploiting oxidative stress in these tumor types. Oxidative stress both contributes towards causing DNA damage, and makes DNA damage more difficult to repair. So a combination of an ODDER (e.g., Compound A) with a DNA damaging agent, such as radiation, may result in useful therapeutic regimen. Compound A and radiation was examined in vivo xenograft experiments in mt-EGFR, mt-KRAS, and mt-BRAF driven tumors. […] Thus, it is believed that ODDER compounds, such as Compound A, can be used in combination with radiation to treat localized tumors which express either mutant KRAS or mutant BRAF. […] Other ODDER compounds are also expected to have similar lower on target toxicity.
# SGLT1 = test: Loss of EGFR-chaperoned transporter SGLT1 from cells; format: cell-based; conditions: along with EGFR
# From the text: as §1
# EGFR = target: T1, EGFR (Homo sapiens, UniProt P00533); test: Loss/depletion of EGFR from treated tumor cells; format: cell-based
# T1 construct: they all coexpress wild-type (wt)—EGFR along with the KRAS or BRAF oncogene; endogenous in cells
# From the text: However, binding of ODDERs to EGFR prevents activated EGFR from forming the stable molecular complexes required to protect them from being rapidly internalized and degraded by the normal cellular protein degradation mechanisms, which is exactly what these molecules were designed to do. […] The kinase catalytic domain then unbinds both the product, a tyrosyl phosphate monoester, and the byproduct ADP, and can then bind further ATP and substrate as the catalytic cycle continues. There appear to be two major uses for tyrosine phosphorylation in a substrate molecule. The first is that conformational changes in the substrate protein are often driven by the conversion of a neutral, somewhat hydrophobic, tyrosine side chain into a highly hydrophilic phosphotyrosine, with two negative charges at physiological pH. The second is that there are binding sites on many proteins for phosphotyrosine residues, which induce new protein-protein interactions for the substrate protein, frequently changing its cellular localization and/or allowing it to assemble into new multiprotein complexes, both of which can lead the substrate protein to show very different activities after phosphorylation. […] This recruits the intermediate proteins which lead to the activation of the before mentioned signaling cascades. […]
# [4] = system: osimertinib-resistant PC9 non-small cell lung cancer xenografts; test: PC9 xenograft, Compound A with or without radiation, tumor volume; format: in vivo, mice
# Method: (§2) Mice bearing locally advanced xenograft (PC9, RKO, or UMSCC74B) were treated with vehicle (control); daily oral gavage of Compound A (also referred to as DPI-503), radiation plus vehicle, or a combination of daily oral gavage of Compound A and radiation. Tumor volumes were measured using calipers at least three times a week.
# [5] = system: RKO BRAF V600E colorectal cancer tumors; test: RKO xenograft, Compound A with or without radiation, tumor volume; format: in vivo, mice; conditions: mt-BRAF RKO, 100 mg/kg daily oral, 2 GY/day five days a week for 3 weeks
# Method: as §2
# [6] = system: UMSCC74B KRAS G12D head and neck squamous cell carcinoma tumor; test: UMSCC74B xenograft, Compound A with or without radiation, tumor volume; format: in vivo, mice; conditions: mt-KRAS UMSCC74B; 30 mg/kg biw for 2 weeks oral; 2 GY/day five days a week for 3 weeks
# T1 sequence (P00533 25-1210): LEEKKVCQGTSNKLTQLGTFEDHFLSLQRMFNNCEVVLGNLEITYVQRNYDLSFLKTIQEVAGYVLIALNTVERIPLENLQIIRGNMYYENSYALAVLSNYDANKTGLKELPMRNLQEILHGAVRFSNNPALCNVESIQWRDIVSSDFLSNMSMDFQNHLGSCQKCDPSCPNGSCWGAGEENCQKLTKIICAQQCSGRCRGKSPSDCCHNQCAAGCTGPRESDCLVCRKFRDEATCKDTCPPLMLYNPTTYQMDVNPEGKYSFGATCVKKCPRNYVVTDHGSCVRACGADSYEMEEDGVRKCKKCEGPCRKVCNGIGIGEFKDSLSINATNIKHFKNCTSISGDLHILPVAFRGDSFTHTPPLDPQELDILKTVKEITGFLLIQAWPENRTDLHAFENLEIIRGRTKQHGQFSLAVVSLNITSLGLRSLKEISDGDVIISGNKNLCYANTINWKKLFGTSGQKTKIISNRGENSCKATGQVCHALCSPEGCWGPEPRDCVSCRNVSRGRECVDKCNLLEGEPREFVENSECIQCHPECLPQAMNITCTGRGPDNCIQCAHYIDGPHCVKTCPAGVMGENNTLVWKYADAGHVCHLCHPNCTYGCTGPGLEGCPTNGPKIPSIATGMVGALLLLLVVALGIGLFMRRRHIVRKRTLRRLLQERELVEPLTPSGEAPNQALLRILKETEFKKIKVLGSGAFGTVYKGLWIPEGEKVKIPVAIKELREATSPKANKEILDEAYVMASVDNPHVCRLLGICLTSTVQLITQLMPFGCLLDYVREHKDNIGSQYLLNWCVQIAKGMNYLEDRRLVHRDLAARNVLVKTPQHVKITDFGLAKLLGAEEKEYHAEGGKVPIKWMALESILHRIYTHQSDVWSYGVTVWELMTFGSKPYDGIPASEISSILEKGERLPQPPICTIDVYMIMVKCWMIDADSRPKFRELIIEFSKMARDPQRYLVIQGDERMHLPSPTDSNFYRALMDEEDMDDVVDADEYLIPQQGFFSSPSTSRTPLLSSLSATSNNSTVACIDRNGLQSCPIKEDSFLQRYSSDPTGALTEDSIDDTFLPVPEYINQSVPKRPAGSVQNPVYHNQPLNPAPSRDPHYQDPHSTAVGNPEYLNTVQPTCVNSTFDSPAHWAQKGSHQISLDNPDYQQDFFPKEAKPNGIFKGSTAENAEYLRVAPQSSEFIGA
structure (smiles),measurement,setting,value
CN1CCC2(CC1)N=C(SCC(=O)Nc1cnc3ccccc3c1)C(c1ccc(Br)cc1)=N2 [Compound A],on target toxicity,[1],much less on target toxicity than EGFR inhibitors
same,ablation of xCT transporter,xCT,ablated along with EGFR
same,anti-proliferative activity,[2],considerable anti-proliferative activity
same,"H2O2 levels, dose dependence",[3]; increasing amounts of compound,dose-dependent increase
same,increase in cellular H2O2 levels,[3]; top dose tested,2-4 fold
same,ablation of SGLT1 transporter,SGLT1,ablated along with EGFR
same,loss of EGFR from the cell surface,EGFR,loss of EGFR from the cell surface
same,active tumor by gross pathology or histochemistry,"[4]; Day 155, end of experiment, treatment group not named, presumably combination",active tumor could not be detected
same,anti-tumor effect of Compound A combined with radiation (tumor volume),"[4]; mt-EGFR PC9, 75 mg/kg five times a week for 3 weeks oral, 2 Gy/day five times a week for 3 weeks",unexpectedly exhibited efficacy; also recorded: strongly increased
same,anti-tumor effect of Compound A combined with radiation (tumor volume),[5],unexpectedly exhibited efficacy; also recorded: strongly increased
same,anti-tumor effect of Compound A combined with radiation (tumor volume),[6],unexpectedly exhibited efficacy; also recorded: strongly increased
